{"source": "patent EP3628672A1", "about": "(priority 2018, dated 2020)", "key": {"[1]": {"molecular_target": "T1, purified LasB protein from P. aeruginosa (Pseudomonas aeruginosa, UniProt P14756)", "T1 construct": "purchased Merck or Charles River Laboratories", "T1 sequence (P14756 198-498)": "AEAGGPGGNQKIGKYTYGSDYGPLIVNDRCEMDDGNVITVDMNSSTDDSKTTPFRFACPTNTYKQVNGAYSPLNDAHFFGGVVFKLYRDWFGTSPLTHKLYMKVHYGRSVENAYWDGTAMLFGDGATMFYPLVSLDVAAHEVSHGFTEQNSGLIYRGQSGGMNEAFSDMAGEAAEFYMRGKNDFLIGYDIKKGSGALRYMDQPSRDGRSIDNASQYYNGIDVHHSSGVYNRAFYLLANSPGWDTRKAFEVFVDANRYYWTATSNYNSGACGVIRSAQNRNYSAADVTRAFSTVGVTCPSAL", "assay": "Fluorometric assay to determine Ki (Abz-Ala-Gly-Leu-Ala-p-Nitro-Benzyl-Amide substrate)", "format": "biochemical", "in_short": "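Purified P. aeruginosa LasB (10–140 ng/ml) with 250 µM Abz-Ala-Gly-Leu-Ala-p-nitrobenzylamide in 50 mM Tris-HCl pH 7.4, 2.5 mM CaCl2, 0.01% Triton X100, 37 °C; hydrolysis fluorescence (Ex 340/Em 415 nm) followed over 30 min, inhibitor 0.0016–200 µM. Ki = IC50/(1+[S]/Km), Km 214 µM.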"}, "CFBE": {"system": "CFBE", "assay": "Cellular model: IL-6 content (ELISA) in lung epithelial cells treated with PAO1 supernatant", "format": "cell-based, human", "details": "PAO1 supernatant pre-incubated with compound 1h at 37°C, 6h incubation", "excerpt": "(§1) These degradations are beneficial for P. aeruginosa pathogenesis by inhibiting antimicrobial peptide while impairing lung function of the host by promoting lung damage and inhibiting epithelial cell repair. In mice, intranasally instillated LasB induced significant inflammation, injury and death. […] Our compounds are therefore been tested in cellular models to define inhibitory effect of our series on LasB deleterious effect on human lung epithelial cell models (NCI-H292 and CFBE). Supernatants from PAO1 wild type and lasB mutant (PAO1ΔlasB) are pre-incubated with Example 1 at 10 times the final concentrations for 1h at 37°C. Then, supernatants are added to cell lines. After 6h incubation, cell culture supernatants are recovered, IL-6 and Trappin-2 contents are analysed by ELISA method. A Student t-Test is performed to assess the statistical significance between conditions (p < 0.05, *). NCI-H292 and CFBE cells express respectively Trappin-2 and IL-6. Whether treatment with culture supernatant from PAO1ΔlasB induces an overexpression of both immune factors, the treatment with PAO1 supernatant lead to strong reduction of IL-6 and Trappin-2 detected. LasB, hydrolyzing IL-6 and Trappin-2, hijacks the immune response against PA. […] By restoring immune response and secretion of IL-6 and Trappin-2, Example 1 and related LasB inhibitors may restore eradication of PA by the immune system."}, "NCI-H292": {"system": "NCI-H292", "assay": "Cellular model: Trappin-2 content (ELISA) in lung epithelial cells treated with PAO1 supernatant", "format": "cell-based, human", "details": "PAO1 supernatant pre-incubated with compound 1h at 37°C, 6h incubation", "excerpt": "as §1"}, "LasB": {"molecular_target": "T2, LasB (Pseudomonas aeruginosa, UniProt P14756)", "T2 construct": "uses as source of enzyme dialysed supernatant from P. aeruginosa PAO1; endogenous in cells; host or cells: P. aeruginosa PAO1 culture supernatant, filtered and dialysed", "T2 sequence (P14756 198-498)": "as above", "assay": "Elastin assay to determine % inhibition (Elastin Congo-Red, dialysed culture supernatant)", "format": "biochemical, P. aeruginosa PAO1", "details": "read-out: Elastin hydrolysis % inhibition @ 50 / 25 µM inhibitor concentration", "in_short": "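Enzyme source was dialysed PAO1 culture supernatant (50 mM Tris-HCl pH 7.4, 2.5 mM CaCl2), mixed with Elastin Congo-Red and 0.01% Triton X-100. Compound was routinely 50 to 1.56 µM, incubated overnight at 37 °C with shaking. Dye release at OD495 gave % inhibition relative to DMSO and no-enzyme controls.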"}}, "note": "pKi: −log10 of the molar value.", "data": [{"smiles": "O=C(O)CC1(C(=O)NCc2nc(-c3ccccc3)cs2)Cc2ccccc2C1", "note": "[Example 1, 2-[2-[(4-phenylthiazol-2-yl)methylcarbamoyl]indan-2-yl]acetic acid]", "values": [{"measurement": "pKi", "setting": "[1]", "value": "6.70 to 7.30"}, {"measurement": "level of IL-6", "setting": "CFBE", "value": "restored in a dose response maneer level of both Trappin-2 and IL-6 similar to the control"}, {"measurement": "level of Trappin-2", "setting": "NCI-H292", "value": "restored in a dose response maneer level of both Trappin-2 and IL-6 similar to the control"}, {"measurement": "inhibition at 25 µM", "setting": "LasB", "value": "> 75", "unit": "%"}]}, {"smiles": "C[N+]1(CCOc2ccc(-c3csc(CNC(=O)C4(CC(=O)[O-])Cc5ccccc5C4)n3)cc2S(C)(=O)=O)CCOCC1", "note": "[Example 136, 2-[2-[[4-[4-[2-(4-methylmorpholin-4-ium-4-yl)ethoxy]-3-methylsulfonyl-phenyl]thiazol-2-yl]methylcarbamoyl]indan-2-yl]acetate]", "values": [{"measurement": "pKi", "setting": "[1]", "value": "6.70 to 7.30"}, {"measurement": "inhibition at 25 µM", "setting": "LasB", "value": "60 to 75", "unit": "%"}]}, {"smiles": "COc1ccc(-c2csc(CNC(=O)C3(CC(=O)O)Cc4ccccc4C3)n2)cc1C(=O)N1CCC(N(C)C)CC1", "note": "[Example 137, 2-[2-[[4-[3-[4-(dimethylamino)piperidine-1-carbonyl]-4-methoxy-phenyl]thiazol-2-yl]methylcarbamoyl]indan-2-yl]acetic acid]", "values": [{"measurement": "pKi", "setting": "[1]", "value": "6.70 to 7.30"}, {"measurement": "inhibition at 25 µM", "setting": "LasB", "value": "10 to 60", "unit": "%"}]}, {"smiles": "COc1ccc(-c2csc(CNC(=O)C3(CC(=O)[O-])Cc4ccccc4C3)n2)cc1C(=O)N1CCC([N+](C)(C)C)CC1", "note": "[Example 138, 2-[2-[[4-[4-methoxy-3-[4-(trimethylammonio)piperidine-1-carbonyl]phenyl]thiazol-2-yl]methylcarbamoyl]indan-2-yl]acetate]", "values": [{"measurement": "pKi", "setting": "[1]", "value": "5.00 to 6.70"}, {"measurement": "inhibition at 25 µM", "setting": "LasB", "value": "10 to 60", "unit": "%"}]}, {"smiles": "CN(C)C1CCN(S(=O)(=O)c2cc(-c3csc(CNC(=O)C4(CC(=O)O)Cc5cc(F)c(F)cc5C4)n3)ccc2OCCCN2CCCC2)CC1", "note": "[Example 139, 2-[2-[[4-[3-[[4-(dimethylamino)-1-piperidyl]sulfonyl]-4-(3-pyrrolidin-1-ylpropoxy)phenyl]thiazol-2-yl]methylcarbamoyl]-5,6-difluoro-indan-2-yl]acetic acid]", "values": [{"measurement": "pKi", "setting": "[1]", "value": "6.70 to 7.30"}, {"measurement": "inhibition at 25 µM", "setting": "LasB", "value": "10 to 60", "unit": "%"}]}, {"smiles": "C[N+]1(CCc2ccc(-c3csc(CNC(=O)C4(CC(=O)[O-])Cc5ccccc5C4)n3)cn2)CCOCC1", "note": "[Example 141, 2-[2-[[4-[6-[2-(4-methylmorpholin-4-ium-4-yl)ethyl]-3-pyridyl]thiazol-2-yl]methylcarbamoyl]indan-2-yl]acetate]", "values": [{"measurement": "pKi", "setting": "[1]", "value": "6.70 to 7.30"}, {"measurement": "inhibition at 25 µM", "setting": "LasB", "value": "60 to 75", "unit": "%"}]}, {"smiles": "O=C(O)CC1(C(=O)NCc2nc(-c3ccc(OCc4ccncc4)nc3)cs2)Cc2ccccc2C1", "note": "[Example 142, 2-[2-[[4-[6-(4-pyridylmethoxy)-3-pyridyl]thiazol-2-yl]methylcarbamoyl]indan-2-yl]acetic acid]", "values": [{"measurement": "pKi", "setting": "[1]", "value": "> 7.30"}, {"measurement": "inhibition at 25 µM", "setting": "LasB", "value": "> 75", "unit": "%"}]}, {"smiles": "C[n+]1ccc(COc2ccc(-c3csc(CNC(=O)C4(CC(=O)[O-])Cc5ccccc5C4)n3)cn2)cc1", "note": "[Example 143, 2-[2-[[4-[6-[(1-methylpyridin-1-ium-4-yl)methoxy]-3-pyridyl]thiazol-2-yl]methylcarbamoyl]indan-2-yl]acetate]", "values": [{"measurement": "pKi", "setting": "[1]", "value": "6.70 to 7.30"}, {"measurement": "inhibition at 25 µM", "setting": "LasB", "value": "10 to 60", "unit": "%"}]}, {"smiles": "O=C(O)CC1(C(=O)NCc2nc(-c3ccccc3OC(F)(F)F)cs2)Cc2ccccc2C1", "note": "[Example 145, 2-[2-[[4-[2-(trifluoromethoxy)phenyl]thiazol-2-yl]methylcarbamoyl]indan-2-yl]acetic acid]", "values": [{"measurement": "pKi", "setting": "[1]", "value": "6.70 to 7.30"}, {"measurement": "inhibition at 25 µM", "setting": "LasB", "value": "60 to 75", "unit": "%"}]}, {"smiles": "COc1ccccc1-c1csc(CNC(=O)C2(CC(=O)O)Cc3ccccc3C2)n1", "note": "[Example 146, 2-[2-[[4-(2-methoxyphenyl)thiazol-2-yl]methylcarbamoyl]indan-2-yl]acetic acid]", "values": [{"measurement": "pKi", "setting": "[1]", "value": "6.70 to 7.30"}, {"measurement": "inhibition at 25 µM", "setting": "LasB", "value": "60 to 75", "unit": "%"}]}, {"smiles": "CCc1ccccc1-c1csc(CNC(=O)C2(CC(=O)O)Cc3ccccc3C2)n1", "note": "[Example 147, 2-[2-[[4-(2-ethylphenyl)thiazol-2-yl]methylcarbamoyl]indan-2-yl]acetic acid]", "values": [{"measurement": "pKi", "setting": "[1]", "value": "6.70 to 7.30"}, {"measurement": "inhibition at 25 µM", "setting": "LasB", "value": "60 to 75", "unit": "%"}]}, {"smiles": "O=C(O)CC1(C(=O)NCc2nc(-c3ccccc3CO)cs2)Cc2ccccc2C1", "note": "[Example 148, 2-[2-[[4-[2-(hydroxymethyl)phenyl]thiazol-2-yl]methylcarbamoyl]indan-2-yl]acetic acid]", "values": [{"measurement": "pKi", "setting": "[1]", "value": "6.70 to 7.30"}, {"measurement": "inhibition at 25 µM", "setting": "LasB", "value": "60 to 75", "unit": "%"}]}]}
